Test results reported in article PMC10396955, “2-Oxabicyclo[2.1.1]hexanes as saturated bioisosteres of the ortho-substituted phenyl ring” (Nature Chemistry, 2023).

Key:
Fusarium oxysporum = assay: Antifungal activity, agar well diffusion method; type: cell-based; conditions: for zone of inhibition at 3.9 µg/mL / zone of inhibition at […] / zone of inhibition at 15.6 µg/mL / zone of inhibition at 31.25 µg/mL / zone of inhibition at 62.5 µg/mL / zone of inhibition at 125 µg/mL / zone of inhibition at 250 µg/mL / zone of inhibition at 500 µg/mL / zone of inhibition at 1000 µg/mL: Fusarium oxysporum, zones st (static growth), read-out: Diameter of inhibition zone; for zone of inhibition at 3.9 µg/mL: 0.0039 mg/mL; for zone of inhibition at […]: 0.0078 mg/mL; for zone of inhibition at 15.6 µg/mL: 0.0156 mg/mL; for zone of inhibition at 31.25 µg/mL: 0.03125 mg/mL; for zone of inhibition at 62.5 µg/mL: 0.0625 mg/mL; for zone of inhibition at 125 µg/mL: 0.125 mg/mL; for zone of inhibition at 250 µg/mL: 0.25 mg/mL; for zone of inhibition at 500 µg/mL: 0.5 mg/mL; for zone of inhibition at 1000 µg/mL: 1 mg/mL, 40 µl per well, 25 °C, 72 h; for lowest inhibition concentration: agar well diffusion, tested 0.0039-1.0 mg/mL
Description: (§1) The agar well diffusion method is widely used to evaluate the antimicrobial activity of different substances (S. Magaldi, S. Mata-Essayag, C. Hartung de Capriles, et al. Well diffusion for antifungal susceptibility testing, Int. J. Infect. Dis. 8, 2004 , 39–45; C. Valgas, S. M. De Souza, E. F. A. Smânia, et al. Screening methods to determine antibacterial activity of natural products. Braz. J. Microbiol. 38 , 2007 , 369–380). Similarly to the procedure used in a disk-diffusion method, the agar plate surface is inoculated by spreading a volume of the microbial inoculum over the entire agar surface. Then, a hole with a diameter of 6 to 8 mm is punched aseptically with a sterile cork borer or a tip, and a volume […] of the antimicrobial agent or extract solution at desired concentration is introduced into the well. Then, agar plates are incubated under suitable conditions depending upon the test microorganism. The antimicrobial agent diffuses in the agar medium and inhibits the growth of the microbial strain tested (M. Balouiri, M. Sadiki, S. K. Ibnsouda. Methods for in vitro evaluating […]
(§2) Agar well diffusion method is a qualitative method used to measure the ability of compounds to inhibit microbial growth. This test is a quick and easy way to measure and compare levels of inhibitory […]
(§3) Antifungal activity of the synthetic compounds using agar well diffusion The compunds were tested towards plant pathogens Fusarium oxysporum Schltdl. and F. verticillioides (Sacc.) Nirenberg isolated from crops. Antifungal activity of the synthetic compounds was evaluated with using of an agar well diffusion method based on a disk diffusion assay for testing filamentous fungi (CLSI M51-A) [CLSI. Method for Antifungal Disk Diffusion Susceptibility Testing of Nondermatophyte Filamentous Fungi; Approved Guideline.CLSI document M51-A. Wayne, PA:
(§4) Clinical and Laboratory Standards Institute; 2010. This method is standardized for Altenaria , Aspergillus, Bipolaris , Fusarium , order Mucorales etc.
(§5) Preparation of synthetic compounds for mycological assay
(§6) Solutions of fungicides and its analogs were diluted in dimethyl sulfoxide (DMSO) to produce the […]
(§7) Antifungal well diffusion method
(§8) The fungal strains were cultured on potato dextrose agar slants (PDA, Eur. Pharm.) and incubated at 25 °C for 5 days. Sterile distilled water was used to cover and resuspend the colonies. Suspension of […]
(§9) conidia was adjusted to inoculums 5×10^6 conidia/mL. The suspension was further diluted in warm PDA 1:10 to obtain final working inoculums 5×10^5 conidia/mL.
(§10) Polypropylene cylinders (d, 5 mm) were placed on the surface and wells punched in the medium were used as reservoir of the test substances in different concentrations. 40 µl of solutions containing 0.0039-1.0 mg/mL of a test compound was added into the wells.
(§11) Each compound was tested in triplicate at different concentrations. Growth control was a well with 40 µl of DMSO, which was used for test components dilution.
(§12) Plates incubated at 25 °C for 72 h. The test compounds at known concentration into contact with an inoculated medium then exerts a growth-inhibiting effect then a clear zone (the zone of inhibition) appears around the test product. Diameter of a clear zone around the well is measured at the end of the incubation period in millimeters. If the fungal strain is susceptible to the antifungal agent, then a zone of inhibition appears on the agar plate. If it is resistant to the test compound, then no zone is evident.
(§13) The size of the zone of inhibition is usually related to the level of antifungal activity present in the […]
(§14) The growth rate of Fusarium oxysporum and F. verticillioides for each well was determined visually and compared with the growth of control.
(§15) As shown in the table the antifungal activity of the 6 compounds, - Fluxapyroxad, compound 28, compound 29, Boscalid, compound 30, compound 31, - were tested against plant pathogenic fungal […]
(§16) toward Fusarium oxysporum (Table S5, Figure S16). Inhibition zones of all compounds characterized […]

Fusarium verticillioides = assay: Antifungal activity, agar well diffusion method; type: cell-based; conditions: Fusarium verticillioides, 0 = absence of antifungal activity, read-out: Diameter of inhibition zone; for zone of inhibition at 3.9 µg/mL: 0.0039 mg/mL; for zone of inhibition at […]: 0.0078 mg/mL; for zone of inhibition at 15.6 µg/mL: 0.0156 mg/mL; for zone of inhibition at 31.25 µg/mL: 0.03125 mg/mL; for zone of inhibition at 62.5 µg/mL: 0.0625 mg/mL; for zone of inhibition at 125 µg/mL: 0.125 mg/mL; for zone of inhibition at 250 µg/mL: 0.25 mg/mL; for zone of inhibition at 500 µg/mL: 0.5 mg/mL; for zone of inhibition at 1000 µg/mL: 1 mg/mL, 40 µl per well, 25 °C, 72 h
Description: as §1, §2, §3, §4, §5, §6, §7, §8, §9, §10, §11, §12, §13, §14, §15, §16

physchem = type: physicochemical; conditions: for D (partition ratio), incubation 1 / D (partition ratio), incubation 2 / D (partition ratio), incubation 3: Table S2, n-octanol/PBS pH 7.4
Description: Determination of Distribution Coefficient (LogD, pH 7.4) […]
n-octanol – phosphate buffered saline (PBS), pH 7.4. Distribution coefficient (or LogD) is a […]
Phosphate buffered saline, tablet (Sigma-Aldrich, USA; Cat # P4417)
Acetic acid (Enamine, Ukraine.)
DMSO stock solutions of the test compounds 10mM
Gradient HPLC system (Shimadzu, Japan)
MTR22 Multi Mix Rotator (UNICO, USA)
Laboratory Centrifuge, Sigma 4-15C, Qiagen (SIGMA GmbH, Germany) […]
allowed to mix in a rotator for 1 h at 30 rpm. Phase separation was assured by centrifugation for […]
dilution. The samples (both phases) were analyzed using a HPLC system coupled with a tandem mass spectrometer. Mebendazole was used as a reference compound. […]
where: SO – peak area of the analyte in octanol phase
S P – peak area of the analyte in PBS buffer do – dilution coefficient for octanol phase dp – dilution coefficient for aqueous phase

[1] = pH 7.4, LogD, pH 7.4, incubation 1
[2] = pH 7.4, LogD, pH 7.4, incubation 2
[3] = pH 7.4, LogD, pH 7.4, incubation 3

`Cn1cc(C(=O)Nc2ccccc2-c2cc(F)c(F)c(F)c2)c(C(F)F)n1` [Fluxapyroxad, reference compound] showed a zone of inhibition at 3.9 µg/mL (Fusarium oxysporum) of 14 ± 1.2 mm, a zone of inhibition at […] (Fusarium oxysporum) of 17 ± 1.2 mm and a zone of inhibition at 15.6 µg/mL (Fusarium oxysporum) of 22 ± 1.7 mm. For the same compound, the zone of inhibition at 31.25 µg/mL (Fusarium oxysporum) was 28 ± 1.5 mm, the zone of inhibition at 62.5 µg/mL (Fusarium oxysporum) was 30 ± 0.6 mm and the zone of inhibition at 125 µg/mL (Fusarium oxysporum) was 33 ± 1 mm. It also gave a zone of inhibition at 250 µg/mL (Fusarium oxysporum) of 35 ± 0.6 mm, a zone of inhibition at 500 µg/mL (Fusarium oxysporum) of 38 ± 1.5 mm and a zone of inhibition at 1000 µg/mL (Fusarium oxysporum) of 43 ± 1.53 mm. The lowest inhibition concentration (Fusarium oxysporum) was under 0.0039 mg/mL, the zone of inhibition at 3.9 µg/mL (Fusarium verticillioides) was 19 ± 0.6 mm and the zone of inhibition at […] (Fusarium verticillioides) was 26 ± 1.2 mm. For the same compound, the zone of inhibition at 15.6 µg/mL (Fusarium verticillioides) was 30 ± 1.5 mm, the zone of inhibition at 31.25 µg/mL (Fusarium verticillioides) was 33 ± 0.6 mm and the zone of inhibition at 62.5 µg/mL (Fusarium verticillioides) was 34 ± 1.2 mm. For the same compound, the zone of inhibition at 125 µg/mL (Fusarium verticillioides) was 36 ± 0.6 mm, the zone of inhibition at 250 µg/mL (Fusarium verticillioides) was 40 ± 1 mm and the zone of inhibition at 500 µg/mL (Fusarium verticillioides) was 49 ± 1.2 mm. For the same compound, the zone of inhibition at 1000 µg/mL (Fusarium verticillioides) was 56 ± 1.7 mm, the “D (partition ratio), incubation 1” value (physchem) was 3.37E+03 and the “D (partition ratio), incubation 2” value (physchem) was 2.99E+03. For the same compound, the “D (partition ratio), incubation 3” value (physchem) was 3.24E+03, the logD at 1 h (physchem; pH 7.4, LogD, pH 7.4 (mean)) was 3.51 and the logD at 1 h (physchem; [1]) was 3.53. The logD at 1 h (physchem; [2]) was 3.48, the logD at 1 h (physchem; [3]) was 3.51 and the logD at 1 h (physchem; pH 7.4, logD (7.4)) was 3.5.

Work on `O=C(N[C@@H]1[C@H]2C[C@]1(c1ccc(Cl)cc1)CO2)c1cccnc1Cl` (relative stereo) [Compound 31] yielded a zone of inhibition at 3.9 µg/mL (Fusarium oxysporum) of 8 ± 0.6 mm, a zone of inhibition at […] (Fusarium oxysporum) of 9 ± 0.6 mm and a zone of inhibition at 15.6 µg/mL (Fusarium oxysporum) of 14 ± 1 mm. It also gave a zone of inhibition at 31.25 µg/mL (Fusarium oxysporum) of 16 ± 1 mm, a zone of inhibition at 62.5 µg/mL (Fusarium oxysporum) of 18 ± 0.6 mm and a zone of inhibition at 125 µg/mL (Fusarium oxysporum) of 19 ± 1 mm. It also gave a zone of inhibition at 250 µg/mL (Fusarium oxysporum) of 18 ± 1 mm, a zone of inhibition at 500 µg/mL (Fusarium oxysporum) of 21 ± 1 mm and a zone of inhibition at 1000 µg/mL (Fusarium oxysporum) of 25 ± 0.6 mm. It also gave a lowest inhibition concentration (Fusarium oxysporum) of 0.0039 mg/mL, a zone of inhibition at 3.9 µg/mL (Fusarium verticillioides) of 0 mm and a zone of inhibition at […] (Fusarium verticillioides) of 0 mm. The zone of inhibition at 15.6 µg/mL (Fusarium verticillioides) was 0 mm, the zone of inhibition at 31.25 µg/mL (Fusarium verticillioides) was 0 mm and the zone of inhibition at 62.5 µg/mL (Fusarium verticillioides) was 0 mm. For the same compound, the zone of inhibition at 125 µg/mL (Fusarium verticillioides) was 10 ± 0.6 mm, the zone of inhibition at 250 µg/mL (Fusarium verticillioides) was 16 ± 1.2 mm and the zone of inhibition at 500 µg/mL (Fusarium verticillioides) was 23 ± 1.5 mm. For the same compound, the zone of inhibition at 1000 µg/mL (Fusarium verticillioides) was 29 ± 1.2 mm, the “D (partition ratio), incubation 1” value (physchem) was 3.05E+03 and the “D (partition ratio), incubation 2” value (physchem) was 3.16E+03. The “D (partition ratio), incubation 3” value (physchem) was 3.13E+03, the logD at 1 h (physchem; pH 7.4, LogD, pH 7.4 (mean)) was 3.5 and the logD at 1 h (physchem; [1]) was 3.48. For the same compound, the logD at 1 h (physchem; [2]) was 3.5, the logD at 1 h (physchem; [3]) was 3.5 and the logD at 1 h (physchem; pH 7.4, logD (7.4)) was 2.7 ± 0.2.
